The values below come from patent US5466716A, “Liposomal trimethylsphingosine” (The Biomembrane Institute, priority 1994, dated 1995).

Data set [1] can be described thus: water solubility. It counts as physicochemical. As to conditions: for appearance of aqueous solution: neutral or physiologic pH.
Text: For comparison purposes those same test cells also are exposed to sphingosine and N,N-dimethylsphingosine.
The test system of data set [2] is neutrophils. In words: neutrophil viability (trypan blue exclusion). It counts as cell-based, human. Particulars: for cytotoxic damage to neutrophils: 25 μM. The procedure:
(§1) The viability was evaluated by trypan blue exclusion assay. The cell
(§2) incubated at 37° C. for 10 min with effectors. The aliquot was
(§3) mixed with an equal amount of trypan blue solution and immediately counte
(§4) under a Nikon light microscope.

Data set [3] can be described thus: neutrophil viability (trypan blue exclusion). It counts as cell-based, human. Particulars: neutrophils. On the procedure:
as §1, §2, §3, §4

Data set [4] concerns 47 kDa and 65 kDa proteins. In words: PMA-induced phosphorylation of 47 kDa and 65 kDa neutrophil proteins. In kind it is cell-based, human. Particulars: for phosphorylation of 47 kDa and 65 kDa proteins / time in which inhibitory effect on phosphorylation is observed: 15-45 μM; for phosphorylation of 47 kDa and 65 kDa proteins: PMA 1.5 μM; for time in which inhibitory effect on phosphorylation is observed: incubation. The procedure:
Excess unbound components were removed by centrifugation and the pellets were resuspended in the same buffer, repeating twice. The cells then were divided into 7 treatment groups, each containing ≈1×10^7 cells in a total volume of 0.4 ml. […] Two minutes later, the reaction was terminated by adding 0.1 ml of Laemmli's sample buffer and 20 mM EDTA, followed by heating at 100° C. for 5 min. Aliquots were separated through 10% sodium dodecyl sulfate gels using known procedures. ^32 P incorporation was visualized by autoradiography.

The test system of data set [5] is GMP-140. In words: GMP-140 expression on platelets (flow cytometry, mAb AC1.2). In kind it is cell-based, human. On the procedure: FIGS. 11A and 11B depict results of representative experiments assessing the percentage of platelets capable of binding an anti-GMP-140 antibody following exposure to various agents. The percentage binding activity was determined in a flow cytometer. SPN is sphingosine; H-7 is 1-(5-isoquinolinylsulfonyl)-2-methylpiperazine; Cal is calphostin-C; TMS is trimethylsphingosine; and DMS is dimethylsphingosine.
GMP-140 expression was determined by (i) flow cytometry with mAb AC1.2, which is directed to GMP-140 and obtained from Dr. Furie (Tufts Univ. Sch. Med., Boston, Mass.) and (ii) adhesion of HL60 cells on platelet-coated solid phase.
A suspension of platelets (1×10^8 /ml) in Tyrode's buffer was preincubated with inhibitor at pH 7.2, 37° C., for 5 minutes, then supplemented with activator, either thrombin (final concentration 1 U/ml) or phorbol 12-myristate 13-acetate (PMA (final concentration 10^-7 M), and the mixture was incubated at 37° C. for 10 minutes. Platelets were fixed with an equal volume of 2% (w/v) paraformaldehyde in PBS and washed 2 times with PBS containing 1% (w/v) BSA.
The paraformaldehyde-fixed platelets were incubated with 50 μl of mAb AC1.2 (2.5 μg/ml) at room temperature for 30 minutes. Platelets were washed 2 times with PBS containing 1% (w/v) BSA, supplemented with 50 μl of fluorescein isothiocyanate-labeled goat anti-mouse Ig (purchased from Tago Co., Burlingame, Calif.), incubated at room temperature for 30 minutes and again washed 2 times with PBS containing 1% (w/v) BSA. As a negative control, paraformaldehyde-fixed platelets were incubated with mouse IgG instead of mAb AC1.2 and treated as described above.
The platelets were analyzed in an Epics flow cytometer (Coulter Corp.) with suitable gating. To calculate the inhibitory effect of various reagents, the mean fluorescence intensity of resting platelets (obtained on incubation of platelets without activator) was subtracted from the value for the activated platelet sample.
(In general: A flow cytometer gives signals particle by particle.)

The test system of data set [6] is phosphoinositide turnover. The data set can be described thus: fMLP-induced phosphoinositide turnover in neutrophils (32P incorporation). In kind it is cell-based, human. Particulars: for activity at 5 µM: Homo sapiens, Neutrophil, Table VI, 5 μM effector plus fMLP, control 100, read-out: PIP labeling. The procedure: Amount of ^32 P in PIP and PIP2 was measured using TLC separation. The spots on TLC plates were scraped off and the radioactivity therein was measured with a Beckman scintillation counter. Each spot was compared as to intensity with the identical spot of the control sample.
After incubation, the cells were washed and resuspended in the same buffer at a concentration of 1×10^7 cells/ml. Each suspension (1 ml) then was pretreated with TMS, SPN or DMS, or equal volume of 50% ethanol, for 10 min at 37° C. Then keeping the same temperature, fMLP was added to a final concentration of 1.0 μM. Two minutes later, the reaction was terminated by adding 3.75 ml of chloroform/methanol (1:2) to each cell suspension, followed by sonication for 15 min. An additional 1.25 ml of chloroform, 1.25 ml of water and 50 μl of acetone were added and the total mixture was mixed and left overnight.
Following centrifugation of the mixture, the phospholipids were extracted by Folch's partition method, taking the lower phase from the cell lysate. […] The TLC plate was developed with control phospholipids, in a solvent comprising chloroform/methanol/4M NaOH at a ratio of 45:35:10 and containing 0.1% CDTA (trans-1,2-diaminocyclohexane-N,N,N',N'-tetraacetic acid) for 65 min at 37° C. The bands were identified by staining the control phospholipids with primuline and visualization under ultraviolet light. Autoradiography was performed with Kodak diagnostic film GBX-2 (Rochester N.Y.) by exposing overnight at 37° C.

Setting [7] is: chloride salts and slightly acidic pH.
[8] abbreviates: Table III, control 94, read-out: Viability.

Entries after “also recorded” stand apart in the source; their conditions may differ. Where two headings read alike, the source gives them in different places.

As a reminder, the viability is the share of living cells, or the viability signal relative to a control.

Turning to `CCCCCCCCCCCCC/C=C/[C@@H](O)[C@H](CO)N(C)C` [DMS, (4E)-N,N-dimethyl-D-erythro-sphingosine], the water solubility entry in data set [1] (setting [7]) is listed as “soluble in water”. Moreover, in data set [1], the “appearance of aqueous solution” value is reported as “tend to form opaque suspensions”. Besides, in data set [1] (particularly at physiologic pH), the water solubility result was “less water soluble”. Besides, the “cytotoxic damage to neutrophils” value in data set [2] is given as “major cytotoxic damage to neutrophils”. The cytotoxicity at 10 min, 15 µM in data set [3] is 12 to 13%. In data set [3] (Table V, 37° C., 10 min), this molecule returned a viability at 10 min, 5 µM of 96 ± 3%; a viability at 10 min, 25 µM of 29 ± 5%; a viability at 10 min, 45 µM of 0%. For the same molecule, the viability at 10 min, 15 µM in data set [3] (Table V, 37° C., 10 min, read-out: Viability of neutrophils) was 88 ± 8%. For the same molecule, in data set [4], the “phosphorylation of 47 kDa and 65 kDa proteins” value was “diminished significantly”; the “time in which inhibitory effect on phosphorylation is observed” value (“time in which inhibitory effect” for short) was not above 2 min. Besides, the “inhibition of GMP-140 expression” value in data set [5] (PMA-induced, 10-20 μM) is “strongly inhibited GMP-140 expression”. For the same molecule, in data set [5] (thrombin-induced, FIG. 11A), the “inhibition of GMP-140 expression” value is recorded as “strongly inhibited thrombin-induced GMP-140 expression”. In addition, the activity at 5 µM in data set [6] amounted to 146 ± 27%.
As to `CCCCCCCCCCCCC/C=C/[C@@H](O)[C@@H](N)CO` [SPN, sphingosine], in data set [1] (setting [7]), the water solubility result is reported as “soluble in water”. The “appearance of aqueous solution” value in data set [1] is given as “tend to form opaque suspensions”. For the same molecule, in data set [1] (particularly at physiologic pH), the water solubility result is reported as “less water soluble”. Further, the “cytotoxic damage to neutrophils” value in data set [2] was “major cytotoxic damage to neutrophils”. In data set [3], this molecule returned a cytotoxicity at 10 min, 15 µM of 12 to 13%. The viability at 10 min, 15 µM in data set [3] (setting [8]) turned out to be 87 ± 5.3%. For the same molecule, in data set [3] (Table V, 37° C., 10 min), the viability at 10 min, 5 µM was 95 ± 3%; the viability at 10 min, 25 µM amounted to 53 ± 18%; the viability at 10 min, 45 µM stood at 5 ± 5%. Besides, in data set [4], the “phosphorylation of 47 kDa and 65 kDa proteins” value is reported as “diminished significantly”; the “time in which inhibitory effect” value is not above 2 min. Further, the “inhibition of GMP-140 expression” value in data set [5] (PMA-induced, FIG. 11B) is “Neither SPN nor H-7 showed inhibition”. In addition, the “inhibition of GMP-140 expression” value in data set [5] (thrombin-induced, FIG. 11A) is “no inhibition”. In addition, the activity at 5 µM in data set [6] was 174 ± 37%.
Regarding `CCCCCCCCCCCCC/C=C/[C@@H](O)[C@H](CO)[N+](C)(C)C` [TMS, N,N,N-trimethylsphingosine], the “solubility in aqueous solvents” value in data set [1] is reported as “excellent solubility”. Further, in data set [1] (acidic, neutral or basic conditions), the solubility entry was “stable, clear solutions”. Also, in data set [1] (particularly at physiologic pH), the water solubility entry is recorded as “highly water soluble”. Besides, in data set [2] (15 μM), the cell cytotoxicity entry is “no significant cell cytotoxicity” and the “cell viability during transmigration” value is on record as “without affecting the viability of the cells”. The “cytotoxic damage to neutrophils” value in data set [2] is “negligible”. Further, the cell viability entry in data set [2] (Examples 9 and 10) is “without an adverse effect on cell viability; also recorded: without effecting cell viability”. Further, the viability at 10 min, 15 µM in data set [3] (setting [8]) was determined as 97 ± 2.9%. In data set [3] (Table V, 37° C., 10 min), the viability at 10 min, 5 µM was found to be 98 ± 2%; the viability at 10 min, 25 µM is 83 ± 6%; the viability at 10 min, 45 µM turned out to be 63 ± 8%. Also, in data set [4], the “phosphorylation of 47 kDa and 65 kDa proteins” value is given as “diminished significantly”; the “time in which inhibitory effect” value is not above 2 min. Also, the “phosphorylation of specific proteins related to protein kinase C” value in data set [4] (Example 7) is given as “had an affect on phosphorylation of specific proteins”. The “inhibition of GMP-140 expression” value in data set [5] (PMA-induced, 10-20 μM) is listed as “strongly inhibited GMP-140 expression”. Moreover, the GMP-140 expression result in data set [5] (platelets preincubated with TMS) was “inhibits GMP-140 expression; also recorded: down-regulated or blocked”. In data set [5] (thrombin-induced, 10-20 μM), the “inhibition of GMP-140 expression” value is reported as “strongly inhibited GMP-140 expression”. Also, the “suppression of fMLP-dependent enhancement of 32P incorporation into PI, PIP and PIP2” value in data set [6] (5 μM, fMLP 1 μM) is “suppressed strongly”. Besides, in data set [6] (Example 8), the “fMLP induced phosphorylation of phosphotidyl inositols” value is “suppressed”. Besides, the activity at 5 µM in data set [6] was determined as 127 ± 19%.
In turn, Calphostin C gave a Viability in data set [2] (Table III, 5 μM, control 94, 10 min) of 46 ± 5.5. In data set [5] (thrombin-induced, 10-20 μM), the “inhibition of GMP-140 expression” value is given as “weak inhibition”.
